Patent publication US6933304B2, “Heteroarylalkanoic acids as integrin receptor antagonists” (Pharmacia Corporation, priority 2000, dated 2005)

Tests used:
[1] = molecular target: T1, αVβ3 integrin (293-β3 cells) (Homo sapiens, UniProt P05106+P06756); assay: 293-β3 cell adhesion assay (adhesion to immobilized vitronectin); type: cell-based; conditions: 200 uM Mn2+, read-out: 293-β3 (IC50 <10 μM)
T1 construct: expressed in transfected cells; host or cells: 293 human embryonic kidney cells (293-β3)
T1 sequence (P06756 31-889 limits assumed): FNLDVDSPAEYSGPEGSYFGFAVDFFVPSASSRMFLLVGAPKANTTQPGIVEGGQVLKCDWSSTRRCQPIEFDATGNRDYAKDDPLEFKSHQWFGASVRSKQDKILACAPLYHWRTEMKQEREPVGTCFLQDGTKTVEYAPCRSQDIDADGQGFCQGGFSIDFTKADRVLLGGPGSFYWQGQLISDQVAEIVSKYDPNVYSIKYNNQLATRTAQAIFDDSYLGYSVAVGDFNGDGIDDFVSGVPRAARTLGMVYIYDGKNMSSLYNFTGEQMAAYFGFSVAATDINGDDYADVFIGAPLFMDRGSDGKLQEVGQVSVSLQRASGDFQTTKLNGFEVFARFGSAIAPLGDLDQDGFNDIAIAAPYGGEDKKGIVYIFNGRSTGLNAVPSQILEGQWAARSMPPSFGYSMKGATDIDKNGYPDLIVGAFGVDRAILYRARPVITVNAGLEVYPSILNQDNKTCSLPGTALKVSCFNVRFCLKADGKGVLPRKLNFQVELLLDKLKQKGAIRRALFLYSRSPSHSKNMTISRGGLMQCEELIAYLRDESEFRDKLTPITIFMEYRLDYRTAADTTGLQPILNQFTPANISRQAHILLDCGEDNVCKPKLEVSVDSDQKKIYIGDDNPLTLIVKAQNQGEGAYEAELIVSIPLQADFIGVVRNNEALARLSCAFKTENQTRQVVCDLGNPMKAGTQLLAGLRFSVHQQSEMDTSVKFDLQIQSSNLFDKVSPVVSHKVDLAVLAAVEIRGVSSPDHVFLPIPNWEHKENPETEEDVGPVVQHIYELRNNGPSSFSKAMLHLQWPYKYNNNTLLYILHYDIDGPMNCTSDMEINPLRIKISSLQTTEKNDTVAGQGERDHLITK
T1 sequence (P06756 891-1048 partner limits assumed): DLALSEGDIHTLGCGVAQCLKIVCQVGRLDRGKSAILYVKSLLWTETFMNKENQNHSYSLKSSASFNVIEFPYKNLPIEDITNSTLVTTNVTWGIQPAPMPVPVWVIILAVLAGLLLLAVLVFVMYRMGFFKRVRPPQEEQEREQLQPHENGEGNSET
T1 sequence (P05106 27-788): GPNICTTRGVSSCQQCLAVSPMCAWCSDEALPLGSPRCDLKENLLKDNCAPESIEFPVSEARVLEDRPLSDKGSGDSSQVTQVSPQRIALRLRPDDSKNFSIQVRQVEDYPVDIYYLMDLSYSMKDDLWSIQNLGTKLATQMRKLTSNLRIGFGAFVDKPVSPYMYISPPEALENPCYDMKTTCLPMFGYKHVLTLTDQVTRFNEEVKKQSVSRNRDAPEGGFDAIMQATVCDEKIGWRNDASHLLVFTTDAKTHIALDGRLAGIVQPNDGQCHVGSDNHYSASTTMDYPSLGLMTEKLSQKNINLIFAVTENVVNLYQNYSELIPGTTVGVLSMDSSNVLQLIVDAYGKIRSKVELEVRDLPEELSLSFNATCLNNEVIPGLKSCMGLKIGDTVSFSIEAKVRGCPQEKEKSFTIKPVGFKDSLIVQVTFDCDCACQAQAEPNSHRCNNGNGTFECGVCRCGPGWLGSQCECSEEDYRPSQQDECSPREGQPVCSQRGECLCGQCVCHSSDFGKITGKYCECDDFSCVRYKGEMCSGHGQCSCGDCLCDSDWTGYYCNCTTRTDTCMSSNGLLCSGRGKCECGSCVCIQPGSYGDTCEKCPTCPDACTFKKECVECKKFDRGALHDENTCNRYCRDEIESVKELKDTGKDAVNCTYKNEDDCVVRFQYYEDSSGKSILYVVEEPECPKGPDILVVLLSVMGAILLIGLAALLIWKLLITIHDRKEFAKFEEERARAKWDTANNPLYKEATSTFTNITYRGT
Excerpt: While the β3 subunit of αVβ3 is only known to complex with αV or αIIb, the αV subunit complexes with multiple β subunits. The three αV integrins most homologous with αVβ3 are αVβ1, αVβ5 and αVβ6, with 43%, 56% and 47% amino acid identity in the β subunits, respectively. To evaluate the selectivity of compounds between the integrins αVβ3 and αVβ6, cell-based assays were established using the 293 human embryonic kidney cell line. 293 cells express αVβ1, but little to no detectable αVβ3 or αVβ6. cDNAs for β3 and β6 were transfected separately into 293 cells to generate 293-β3 and 293-β6 cells, respectively. High surface expression of αVβ3 and αVβ6 was confirmed by flow cytometry. Conditions were established for each cell line in which cell adhesion to immobilized human vitronectin was mediated by the appropriate integrin, as determined by a panel of integrin-specific, neutralizing monoclonal antibodies. Briefly, cells were incubated with inhibitor in the presence of 200 uM Mn^2+, allowed to adhere to immobilized vitronectin, washed, and adherent cells are detected endogenous alkaline phosphatase and para-nitrophenyl phosphate. An 8-point dose-response curve using either 10-fold or 3-fold dilutions of compound was evaluated by fitting a four-parameter logistic, nonlinear model (using SAS).

[2] = molecular target: T2, αVβ6 (HT-29 human colon carcinoma cells) (Homo sapiens, UniProt P06756+P18564); assay: HT-29 cell adhesion assay (adhesion to immobilized LAP); type: cell-based; conditions: selectivity ratio: IC50 αVβ6 (HT-29) over IC50 β3
T2 construct: endogenous in cells; host or cells: HT-29 human colon carcinoma cells
T2 sequence (P06756 31-889 limits assumed): as the sequence (P06756 31-889 limits assumed) above
T2 sequence (P06756 891-1048 partner limits assumed): as the sequence (P06756 891-1048 partner limits assumed) above
T2 sequence (P18564 22-788): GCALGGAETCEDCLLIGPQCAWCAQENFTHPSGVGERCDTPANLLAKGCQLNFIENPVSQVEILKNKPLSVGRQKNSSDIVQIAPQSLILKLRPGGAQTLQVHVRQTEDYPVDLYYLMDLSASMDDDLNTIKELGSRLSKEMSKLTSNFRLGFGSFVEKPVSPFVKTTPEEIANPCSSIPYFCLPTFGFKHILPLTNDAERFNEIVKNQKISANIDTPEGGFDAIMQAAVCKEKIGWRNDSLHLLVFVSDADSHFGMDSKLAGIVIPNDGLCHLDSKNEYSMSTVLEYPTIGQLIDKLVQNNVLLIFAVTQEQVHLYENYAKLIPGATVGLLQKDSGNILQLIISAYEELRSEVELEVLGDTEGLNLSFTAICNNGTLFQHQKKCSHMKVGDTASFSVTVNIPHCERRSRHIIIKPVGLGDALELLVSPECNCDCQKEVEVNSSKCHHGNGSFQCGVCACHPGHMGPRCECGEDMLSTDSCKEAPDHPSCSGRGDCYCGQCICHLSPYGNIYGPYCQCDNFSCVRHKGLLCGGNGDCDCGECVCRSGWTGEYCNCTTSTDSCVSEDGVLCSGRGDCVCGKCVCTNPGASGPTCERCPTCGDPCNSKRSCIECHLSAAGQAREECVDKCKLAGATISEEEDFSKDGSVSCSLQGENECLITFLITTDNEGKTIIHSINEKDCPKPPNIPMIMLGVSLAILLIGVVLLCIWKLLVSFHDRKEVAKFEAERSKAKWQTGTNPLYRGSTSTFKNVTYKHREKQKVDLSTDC
Procedure: To evaluate compound potency for membrane-bound αVβ6 an additional cell-based adhesion assay was established using the HT-29 human colon carcinoma cell line. High surface expression of αVβ6 on HT-29 cells was confirmed by flow cytometry. Conditions were established in which cell adhesion to immobilized human latency associated peptide (LAP) was mediated by the αVβ6, as determined by a panel of integrin-specific, neutralizing monoclonal antibodies. Briefly, cells were incubated with inhibitor in the presence of 200 uM Mn^2+, allowed to adhere to immobilized LAP, washed, and adherent cells are detected by quantifying endogenous alkaline phosphatase using para-nitrophenyl phosphate. An 8-point dose-response curve using either 10-fold or 3-fold dilutions of compound was evaluated by fitting a four-parameter logistic, nonlinear model (using SAS). The compounds evaluated were relatively ineffective at inhibition of αVβ6-mediated cell adhesion. The selective antagonism of the αVβ3 integrin is viewed as desirable in this class of compounds, as αVβ6 may also play a role in normal physiological processes of tissue repair and cellular turnover that routinely occur in the skin and pulmonary tissues.

[3] = molecular target: T3, Human fibrinogen receptor (IIb/IIIa) (Homo sapiens, UniProt P05106+P08514); assay: Purified IIb/IIIa receptor assay (solid phase receptor assay, SPRA); type: binding; conditions: selectivity ratio: IC50 αIIbβ3 (solid phase receptor assay) over IC50 β3
T3 construct: Human fibrinogen receptor (IIb/IIIa) was purified from outdated platelets; from tissue; host or cells: outdated human platelets
T3 sequence (P08514 32-887 limits assumed): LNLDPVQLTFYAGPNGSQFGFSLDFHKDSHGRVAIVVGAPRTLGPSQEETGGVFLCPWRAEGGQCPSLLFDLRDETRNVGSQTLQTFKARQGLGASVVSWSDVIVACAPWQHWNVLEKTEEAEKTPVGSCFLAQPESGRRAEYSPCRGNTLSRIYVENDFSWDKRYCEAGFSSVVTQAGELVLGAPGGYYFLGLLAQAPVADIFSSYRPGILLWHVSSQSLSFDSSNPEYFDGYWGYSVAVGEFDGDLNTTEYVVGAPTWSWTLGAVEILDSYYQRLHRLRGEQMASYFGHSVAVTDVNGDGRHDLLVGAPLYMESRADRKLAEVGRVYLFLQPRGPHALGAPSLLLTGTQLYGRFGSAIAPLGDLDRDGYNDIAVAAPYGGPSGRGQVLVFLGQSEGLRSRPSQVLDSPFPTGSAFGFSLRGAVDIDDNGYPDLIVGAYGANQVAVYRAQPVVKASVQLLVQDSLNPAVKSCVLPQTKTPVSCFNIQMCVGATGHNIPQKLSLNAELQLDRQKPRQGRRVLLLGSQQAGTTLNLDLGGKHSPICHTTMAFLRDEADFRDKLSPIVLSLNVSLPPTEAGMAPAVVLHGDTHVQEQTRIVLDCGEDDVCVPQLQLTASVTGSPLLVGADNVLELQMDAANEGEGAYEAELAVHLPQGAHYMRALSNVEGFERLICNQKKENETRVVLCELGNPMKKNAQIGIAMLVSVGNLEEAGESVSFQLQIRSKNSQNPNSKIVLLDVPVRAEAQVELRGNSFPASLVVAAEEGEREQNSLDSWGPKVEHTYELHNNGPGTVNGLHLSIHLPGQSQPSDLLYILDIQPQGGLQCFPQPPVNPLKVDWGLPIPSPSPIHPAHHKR
T3 sequence (P08514 891-1039 partner limits assumed): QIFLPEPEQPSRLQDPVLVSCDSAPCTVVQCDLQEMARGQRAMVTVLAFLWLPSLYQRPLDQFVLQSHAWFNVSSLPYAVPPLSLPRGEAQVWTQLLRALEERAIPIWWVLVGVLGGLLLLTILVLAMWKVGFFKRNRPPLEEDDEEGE
T3 sequence (P05106 27-788): as the sequence (P05106 27-788) above
Excerpt: Human fibrinogen receptor (IIb/IIIa) was purified from outdated platelets. (Pytela, R., Pierschbacher, M. D., Argraves, S., Suzuki, S., and Rouslahti, E. “Arginine-Glycine-Aspartic acid adhesion receptors”, Methods in Enzymology 144(1987):475-489.) Human vitronectin was purified from fresh frozen plasma as described in Yatohgo, T., Izumi, M., Kashiwagi, H., and Hayashi, M., “Novel purification of vitronectin from human plasma by heparin affinity chromatography,” Cell Structure and Function 13(1988):281-292. Biotinylated human vitronectin was prepared by coupling NHS-biotin from Pierce Chemical Company (Rockford, IL) to purified vitronectin as previously described. (Charo, I. F., Nannizzi, L., Phillips, D. R., Hsu, M. A., Scarborough, R. M., “Inhibition of fibrinogen binding to GP IIb/IIIa by a GP IIIa peptide”, J. Biol. Chem. 266(3)(1991): 1415-1421.) Assay buffer, OPD substrate tablets, and RIA grade BSA were obtained from Sigma (St. Louis, Mo.). Anti-biotin antibody was obtained from Sigma (St. Louis, Mo.). Nalge Nunc-Immuno microtiter plates were obtained from (Rochester, N.Y.). ADP reagent was obtained from Sigma (St. Louis, Mo.).
This assay is essentially the same reported in Niiya, K., Hodson, E., Bader, R., Byers-Ward, V. Koziol, J. A., Plow, E. F. and Ruggeri, Z. M., “Increased surface expression of the membrane glycoprotein IIb/IIIa complex induced by platelet activation: Relationships to the binding of fibrinogen and platelet aggregation”, Blood 70(1987):475-483. The purified human fibrinogen receptor (IIb/IIIa) was diluted from stock solutions to 1.0 μg/mL in Tris-buffered saline containing 1.0 mM Ca^++, Mg^++, and Mn^++, pH 7.4 (TBS^+++). The diluted receptor was immediately transferred to Nalge Nunc-Immuno microtiter plates at 100 μL/well (100 ng receptor/well). The plates were sealed and incubated overnight at 4° C. to allow the receptors to bind to the wells. All remaining steps were at room temperature. The assay plates were emptied and 200 μL of 1% RIA grade BSA in TBS^+++ (TBS^+++/BSA) were added to block exposed plastic surfaces. Following a 2 hour incubation, the assay plates were washed with TBS^+++ using a 96 well plate washer. Logarithmic serial dilution of the test compound and controls were made starting at a stock concentration of […] and using 2 nM biotinylated vitronectin in TBS^+++/BSA as the diluent. This premixing of labeled ligand with test (or control) ligand, and subsequent transfer of 50 μL aliquots to the assay plate was carried out with a CETUS Propette robot; the final concentration of the labeled ligand was 1 nM and the highest concentration of test compound was 1.0×10^−4 M. The competition occurred for two hours after which all wells were washed with a plate washer as before. Affinity purified horseradish peroxidase labeled goat anti-biotin antibody was diluted 1:2000 in TBS^+++/BSA and 125 μL were added to each well. After 45 minutes, the plates were washed and incubated with […] substrate in 100 mM/L citrate buffer, pH 5.0. The plate was read with a microtiter plate reader at a wavelength of 450 nm and when the maximum-binding control wells reached an absorbance of about 1.0, the final A450 were recorded for analysis. The data were analyzed using a macro written for use with the EXCELJ spreadsheet program. The mean, standard deviation, and %CV were determined for duplicate concentrations. The mean A450 values were normalized to the mean of four maximum-binding controls (no competitor added)(B-MAX). The normalized values were subjected to a four parameter curve fit algorithm, [Robard et al., Int.

SMILES	IC50 [1] [µM]	HT-29 β-6 Selectivity* (β6/β3) [2]	SPRA AIIbB3 Selectivity* IIbIIIa/β3 [3]
CCC(C)(CC(=O)O)Cc1nc(CCCc2ccc3c(n2)NCCC3)no1 (stereo not drawn) [Example 43, 3-Methyl-3-{3-[3-(5,6,7,8-tetrahydro-[1,8]naphthyridin-2-yl)-propyl]-[1,2,4]oxadiazol-5-ylmethyl}-pentanoic acid]	< 10	+++ (Selectivity Ratio >100 +++)	+++ (Selectivity Ratio >100 +++)
CC(CC(=O)O)(Cc1nc(CCCc2ccc3c(n2)NCCC3)no1)c1ccccc1 (stereo not drawn) [Example 47, 3-Methyl-3-phenyl-4-{3-[3-(5,6,7,8-tetrahydro-[1,8]naphthyridin-2-yl)-propyl]-[1,2,4]oxadiazol-5-yl}-butyric acid]	< 10	+++ (Selectivity Ratio >100 +++)	+++ (Selectivity Ratio >100 +++)
O=C(O)C(F)(F)F.O=C(O)CC(Cc1nc(CCCc2ccc3c(n2)NCCC3)no1)c1ccc(F)cc1 (stereo not drawn) [Example 26, 3-(4-fluorophenyl)-4-{3-[3-(5,6,7,8-tetrahydro-1,8-naphthyridin-2-yl)propyl]-1,2,4-oxadiazol-5-yl}butanoic acid trifluoroacetate]	< 10	+++ (Selectivity Ratio >100 +++)	+++ (Selectivity Ratio >100 +++)
CCCC(C)(CC(=O)O)Cc1nc(CCCCNc2ccccn2)no1 (stereo not drawn) [Example 38, 3-methyl-3-({3-[4-(pyridin-2-ylamino)butyl]-1,2,4-oxadiazol-5-yl}methyl)-hexanoic acid]	< 10	+++ (Selectivity Ratio >100 +++)	+++ (Selectivity Ratio >100 +++)
O=C(O)CC1(Cc2nc(CCCCNc3ccccn3)no2)CCCCC1 [Example 37, [1-({3-[4-(pyridin-2-ylamino)butyl]-1,2,4-oxadiazol-5-yl}methyl)cyclohexyl]-acetic acid]	< 10	++ (Selectivity Ratio of 10-100 ++)	++ (Selectivity Ratio of 10-100 ++)
CC(CC(=O)O)(Cc1nc(CCCCNc2ccccn2)no1)c1ccccc1 (stereo not drawn) [Example 42, 3-methyl-3-phenyl-4-{3-[4-(pyridin-2-ylamino)butyl]-1,2,4-oxadiazol-5-yl}-butanoic acid]	< 10	+++ (Selectivity Ratio >100 +++)	+++ (Selectivity Ratio >100 +++)
CCC(C)(CC(=O)O)Cc1nc(CCCCNc2ccccn2)no1 (stereo not drawn) [Example 36, 3-methyl-3-({3-[4-(pyridin-2-ylamino)butyl]-1,2,4-oxadiazol-5-yl}methyl)pentanoic acid]	< 10	+++ (Selectivity Ratio >100 +++)	+++ (Selectivity Ratio >100 +++)
CCCC(C)(CC(=O)O)Cc1nc(CCCc2ccc3c(n2)NCCC3)no1 (stereo not drawn) [Example 44, 3-Methyl-3-{3-[3-(5,6,7,8-tetrahydro-[1,8]naphthyridin-2-yl)-propyl]-[1,2,4]oxadiazol-5-ylmethyl}-hexanoic acid]	< 10	+++ (Selectivity Ratio >100 +++)	+++ (Selectivity Ratio >100 +++)
COc1cccc(C(CC(=O)O)Cc2nc(CCCc3ccc4c(n3)NCCC4)no2)c1.O=C(O)C(F)(F)F (stereo not drawn) [Example 20, 3-(3-methoxyphenyl)-4-{3-[3-(5,6,7,8-tetrahydro-1,8-naphthyridin-2-yl)propyl]-1,2,4-oxadiazol-5-yl}butanoic acid]	< 10	+++ (Selectivity Ratio >100 +++)	+++ (Selectivity Ratio >100 +++)
